Values after ≈ are worked out from the molar mass of the structure shown. Active and inactive are the calls of the source. The calls are words filed in the database; no cut-off is given here.
What was measured:
[1] = target: T1, Peroxisome proliferator-activated receptor gamma (Homo sapiens, UniProt P37231); assay: Inverse agonist activity at GST tagged human PPARgamma LBD (231 to 505 residues) expressed in Escherichia coli BL21(DE3) assessed as recruitment of fluorescein labeled corepressor NCOR2 Smrt-ID2 peptide to PPARgamma LBD incubated for 24 hrs by LanthaScreen TR-FRET assay
T1 sequence (P37231 whole entry): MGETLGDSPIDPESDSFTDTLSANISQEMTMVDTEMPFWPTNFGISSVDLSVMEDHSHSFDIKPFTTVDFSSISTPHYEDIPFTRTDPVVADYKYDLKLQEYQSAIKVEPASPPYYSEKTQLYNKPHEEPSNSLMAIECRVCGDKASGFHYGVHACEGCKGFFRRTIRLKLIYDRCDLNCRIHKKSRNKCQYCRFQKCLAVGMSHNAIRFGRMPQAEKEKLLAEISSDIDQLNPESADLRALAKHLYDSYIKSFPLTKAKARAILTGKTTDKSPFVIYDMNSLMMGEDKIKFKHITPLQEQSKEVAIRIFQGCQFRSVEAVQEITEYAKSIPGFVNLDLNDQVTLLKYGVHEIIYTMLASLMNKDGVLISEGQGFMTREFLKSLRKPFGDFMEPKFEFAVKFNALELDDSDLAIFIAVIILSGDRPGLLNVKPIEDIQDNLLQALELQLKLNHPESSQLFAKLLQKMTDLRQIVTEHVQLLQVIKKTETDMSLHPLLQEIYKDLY

[2] = target: T1, Peroxisome proliferator-activated receptor gamma; assay: Inverse agonist activity at human PPARgamma in human RT112/84 transfected with NLuc-fused FABP4 assessed as reduction in PPARgamma transactivation incubated for 6 to 18 hrs by Nano-Glo luciferase assay; assay type: cell-based
[3] = target: T2, Peroxisome proliferator-activated receptor alpha (Homo sapiens, UniProt Q07869); assay: Agonist activity at human PPARalpha expressed in CHO cells co-expressing GAL4-NHR-LBD assessed as transcriptional activation preincubated for 6 hrs followed by luciferin addition by luminescence method; assay type: cell-based
T2 sequence (Q07869 whole entry): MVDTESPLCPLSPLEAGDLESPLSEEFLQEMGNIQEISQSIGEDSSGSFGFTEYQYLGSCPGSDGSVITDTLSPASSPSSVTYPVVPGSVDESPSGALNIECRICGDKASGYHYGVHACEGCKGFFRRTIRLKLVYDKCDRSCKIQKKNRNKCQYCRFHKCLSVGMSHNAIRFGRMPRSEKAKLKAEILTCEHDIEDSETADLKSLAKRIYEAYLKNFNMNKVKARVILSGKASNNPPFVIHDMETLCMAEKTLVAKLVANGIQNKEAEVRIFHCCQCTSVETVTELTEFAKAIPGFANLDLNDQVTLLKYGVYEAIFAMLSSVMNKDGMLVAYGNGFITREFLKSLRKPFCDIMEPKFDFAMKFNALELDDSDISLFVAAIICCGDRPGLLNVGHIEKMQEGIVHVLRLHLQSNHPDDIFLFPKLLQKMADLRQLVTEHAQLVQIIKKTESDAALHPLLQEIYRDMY

[4] = target: T3, Peroxisome proliferator-activated receptor delta (Homo sapiens, UniProt Q03181); assay: Inverse agonist activity at human PPARdelta expressed in CHO cells co-expressing GAL4-NHR-LBD assessed as transcriptional repression preincubated for 6 hrs followed by luciferin addition by luminescence method; assay type: cell-based
T3 sequence (Q03181 whole entry): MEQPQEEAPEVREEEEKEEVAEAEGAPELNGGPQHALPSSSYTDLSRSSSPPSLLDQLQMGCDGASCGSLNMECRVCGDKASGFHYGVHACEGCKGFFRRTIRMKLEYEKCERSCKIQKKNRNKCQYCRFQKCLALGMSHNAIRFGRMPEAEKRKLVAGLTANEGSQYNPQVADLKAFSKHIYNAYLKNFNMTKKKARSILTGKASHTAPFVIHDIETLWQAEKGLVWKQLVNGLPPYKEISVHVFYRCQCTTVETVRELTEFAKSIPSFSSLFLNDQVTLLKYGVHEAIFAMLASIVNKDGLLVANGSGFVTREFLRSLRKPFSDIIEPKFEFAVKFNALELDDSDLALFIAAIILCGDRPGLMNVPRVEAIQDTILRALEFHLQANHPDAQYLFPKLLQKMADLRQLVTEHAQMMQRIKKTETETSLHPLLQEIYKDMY

[5] = target: T4, Peroxisome proliferator-activated receptor gamma (Mus musculus) (UniProt P37238); assay: Inverse agonist activity at PPARgamma in NMRI-nu/nu mouse assessed as reduction in Fabp4 mRNA expression in adipose tissue at 100 mg/kg for 3 days and measured 6 hrs last dose by qPCR analysis; assay type: organism-based; conditions: time 3.0 day
T4 sequence (whole entry): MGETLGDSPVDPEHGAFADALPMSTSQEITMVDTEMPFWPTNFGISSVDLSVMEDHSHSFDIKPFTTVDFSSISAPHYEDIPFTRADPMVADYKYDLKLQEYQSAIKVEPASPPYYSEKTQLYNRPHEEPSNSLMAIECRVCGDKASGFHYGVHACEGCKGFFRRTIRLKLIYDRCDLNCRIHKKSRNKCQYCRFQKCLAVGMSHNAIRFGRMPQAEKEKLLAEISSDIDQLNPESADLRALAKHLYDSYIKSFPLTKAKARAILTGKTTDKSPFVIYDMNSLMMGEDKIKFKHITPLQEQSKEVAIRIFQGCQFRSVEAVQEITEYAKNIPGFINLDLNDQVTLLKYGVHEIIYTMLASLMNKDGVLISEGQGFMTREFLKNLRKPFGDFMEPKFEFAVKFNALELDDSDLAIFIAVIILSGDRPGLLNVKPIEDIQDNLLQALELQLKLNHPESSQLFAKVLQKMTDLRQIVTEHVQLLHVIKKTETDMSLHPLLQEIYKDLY

[6] = Antiproliferative activity against human UM-UC-9 assessed as inhibition of cell proliferation by measuring maximum efficacy after 7 days by IncuCyte live-cell imaging assay; assay type: functional; conditions: UM-UC-9, 168 h, time 7 day
[7] = Antiproliferative activity against human UM-UC-9 assessed as inhibition of cell proliferation measured after 7 days by IncuCyte live-cell imaging assay; conditions: UM-UC-9, 168 h
[8] = Microsomal stability in human liver microsomes assessed as intrinsic clearance at 1 uM measured upto 60 mins in presence of NADPH by HPLC-MS/MS analysis; assay type: ADME, Microsome; conditions: read-out: CLH (converted)
[9] = Stability in rat hepatocytes assessed as intrinsic clearance at 1 uM incubated for 1 hr by HPLC-MS/MS analysis; assay type: ADME, cell-based, Hepatocyte; conditions: read-out: CLH (converted)
[10] = Stability of compound in GSH at pH 7.4 assessed as parent compound remaining at 10 mM and measured after 1 hrs by HPLC-UV analysis; assay type: physicochemical; conditions: GSH solution, read-out: Stability
[11] = Stability of compound in GSH at pH 7.4 assessed as parent compound remaining at 10 mM and measured after 2 hrs by HPLC-UV analysis; assay type: physicochemical; conditions: GSH solution, read-out: Stability
[12] = Stability of compound in GSH at pH 7.4 assessed as parent compound remaining at 10 mM and measured after 4 hrs by HPLC-UV analysis; assay type: physicochemical; conditions: GSH solution, read-out: Stability
[13] = Stability of compound in GSH at pH 7.4 assessed as parent compound remaining at 10 mM and measured after 24 hrs by HPLC-UV analysis; assay type: physicochemical; conditions: GSH solution, read-out: Stability
[14] = Stability of compound in cysteine at pH 7.4 assessed as parent compound remaining at 10 mM and measured after 1 hrs by HPLC-UV analysis; assay type: physicochemical; conditions: cysteine solution, read-out: Stability
[15] = Stability of compound in cysteine at pH 7.4 assessed as parent compound remaining at 10 mM and measured after 2 hrs by HPLC-UV analysis; assay type: physicochemical; conditions: cysteine solution, read-out: Stability
[16] = Stability of compound in cysteine at pH 7.4 assessed as parent compound remaining at 10 mM and measured after 4 hrs by HPLC-UV analysis; assay type: physicochemical; conditions: cysteine solution, read-out: Stability
[17] = Stability of compound in cysteine at pH 7.4 assessed as parent compound remaining at 10 mM and measured after 24 hrs by HPLC-UV analysis; assay type: physicochemical; conditions: cysteine solution, read-out: Stability
[18] = Apparent permeability across basolateral to apical side in human Caco-2 cells at 2 uM incubated for 2 hrs by LC-MS/MS analysis; assay type: ADME, cell-based
[19] = Thermodynamic solubility of compound at pH 6.5 PBS buffer; assay type: physicochemical; conditions: read-out: Therm_solubility
[20] = target: T5, Nuclear receptor subfamily 1 group I member 2 (Homo sapiens, UniProt O75469); assay: Transactivation of human PXR in human HepG2 cells co-expressing luciferase gene under control of CYP3A4 promoter assessed as increase in luciferase activity incubated for 24 hrs by luminescence based analysis; assay type: ADME, cell-based
T5 sequence (O75469 whole entry): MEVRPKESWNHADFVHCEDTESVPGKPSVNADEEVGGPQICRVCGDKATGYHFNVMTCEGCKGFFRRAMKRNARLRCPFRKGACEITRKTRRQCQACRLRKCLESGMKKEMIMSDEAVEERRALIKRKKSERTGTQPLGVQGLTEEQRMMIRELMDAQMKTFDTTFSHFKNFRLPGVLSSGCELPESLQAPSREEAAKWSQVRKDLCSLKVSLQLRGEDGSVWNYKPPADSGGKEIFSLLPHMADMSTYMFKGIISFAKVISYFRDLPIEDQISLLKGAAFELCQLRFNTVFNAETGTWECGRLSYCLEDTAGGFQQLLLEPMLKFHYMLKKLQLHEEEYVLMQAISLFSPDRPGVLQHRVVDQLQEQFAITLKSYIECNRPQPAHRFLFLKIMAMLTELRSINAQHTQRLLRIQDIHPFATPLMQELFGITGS

[21] = AUClast in Wistar rat at 0.3 mg/kg,iv measured upto 24 hrs by HPLC-MS/MS analysis; assay type: ADME, organism-based; design: dose 0.3 mg/kg, time < 24 hrs, route iv; conditions: in vivo
[22] = Clearance in Wistar rat at 0.3 mg/kg,iv measured upto 24 hrs by HPLC-MS/MS analysis; assay type: ADME, organism-based; conditions: in vivo
[23] = Volume of distribution at steady state in Wistar rat at 0.3 mg/kg,iv measured upto 24 hrs by HPLC-MS/MS analysis; assay type: ADME, organism-based; conditions: in vivo, read-out: Vdss
[24] = Half life in Wistar rat at 0.3 mg/kg,iv measured upto 24 hrs by HPLC-MS/MS analysis; assay type: ADME, organism-based; conditions: in vivo
[25] = AUClast in NMRI-nu/nu mouse at 100 mg/kg,po measured upto 24 hrs by HPLC-MS/MS analysis; assay type: ADME, organism-based; design: time < 24 hrs, dose 100 mg/kg, route po; conditions: in vivo
[26] = Cmax in NMRI-nu/nu mouse at 100 mg/kg,po measured upto 24 hrs by HPLC-MS/MS analysis; assay type: ADME, organism-based; design: time < 24 hrs, dose 100 mg/kg, route po; conditions: in vivo
[27] = Tmax in NMRI-nu/nu mouse at 100 mg/kg,po measured upto 24 hrs by HPLC-MS/MS analysis; assay type: ADME, organism-based; conditions: in vivo

Structure (SMILES): O=C(NCc1ccccc1)c1cc(Cl)cc(C(=O)Nc2ccccc2)c1
- EC50 [1]: > 5 µM
- IC50 [2]: > 5 µM

Structure (SMILES): O=C(NCc1ccc(Cl)cc1)c1ccc(Cl)c(C(=O)Nc2ccccc2)c1
- EC50 [1]: 7.2 µM
- IC50 [2]: > 5 µM

Structure (SMILES): Cc1c(C)n(Cc2ccc(Cl)c(O[C@@H](C)C(=O)O)c2)c2ccc(C(=O)N[C@@H](C)c3ccc(C(C)(C)C)cc3)cc12
- IC50 [3]: 0.935 µM
- IC50 [4]: 9 µM
- Activity [5]: inactive

Structure (SMILES): O=C(NCc1ccccc1)c1ccc(F)c(C(=O)Nc2ccccc2)c1
- EC50 [1]: > 5 µM
- IC50 [2]: > 5 µM

Structure (SMILES): Cc1cc(-c2nnco2)ccc1NC(=O)c1cc(C(=O)NCc2ccc(F)c(F)c2)c(F)cc1Cl
- EC50 [1]: 0.049 µM
- Emax [6]: 87%

Structure (SMILES): Cc1cccc(-c2nc3cc(NC(=O)c4cc(C(=O)NCc5ccc(F)c(F)c5)c(F)cc4Cl)ccc3o2)c1
- IC50 [7]: 0.0187 µM
- EC50 [1]: 0.23 µM
- Emax [6]: 93%

Structure (SMILES): O=C(NCc1ccc(F)c(F)c1)c1ccc(Cl)c(C(=O)Nc2ccccc2)c1
- EC50 [1]: 1.75 µM
- Emax [6]: 103%

Structure (SMILES): Cc1cc(N2CCOCC2)cnc1NC(=O)c1cc(C(=O)NCc2ccc(F)c(F)c2)c(F)cc1Cl
- IC50 [7]: 0.0983 µM
- Emax [6]: 99%
- CLint scaled at 1 µM [8]: 14.7 mL/min/kg
- CLint scaled at 1 µM [9]: 42.5 mL/min/kg
- remaining at 1 h, 10000 µM [10]: 100%
- remaining at 2 h, 10000 µM [11]: 100%
- remaining at 4 h, 10000 µM [12]: 100%
- remaining at 24 h, 10000 µM [13]: 100%
- remaining at 1 h, 10000 µM [14]: 100%
- remaining at 2 h, 10000 µM [15]: 100%
- remaining at 4 h, 10000 µM [16]: 100%
- remaining at 24 h, 10000 µM [17]: 100%
- Papp B→A at 2 h, 2 µM [18]: 10.9 ×10⁻⁶ cm/s
- solubility thermodynamic [19]: 1.6 µg/mL (≈ 3.08 µM)
- IC50 [20]: > 49.8 µM
- AUClast [21]: 0.35 kg·h/L
- clearance [22]: 46.7 mL/min/kg
- Vd [23]: 0.84 L/kg
- half-life [24]: 0.21 h
- AUC(0-t) at 24 h [25]: 520 ng·h/mL
- Cmax [26]: 73 nM
- Tmax [27]: 7 h
- Activity [5]: inactive

From ChEMBL document CHEMBL5236643, “Discovery and characterization of orally bioavailable 4-chloro-6-fluoroisophthalamides as covalent PPARG inverse-agonists” (Bioorg Med Chem, 2023)
